Laboratory results as given in PubChem BioAssay (NCI).
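Dose response: 5 concentrations. Exposure: 48 h. Format: 96-well plates. Endpoint: linear interpolation; highest concentration if not reached. The concentration for full growth arrest is given as TGI.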

What was measured:
Assay in all cases: inhibition of tumour cell growth, NCI panel, 48 h
[1] = tested on: OVCAR-8 ovarian
[2] = tested on: M14 melanoma
[3] = tested on: SN12C renal
[4] = tested on: SF-295 CNS
[5] = tested on: 786-0 renal
[6] = tested on: U251 CNS
[7] = tested on: SF-539 CNS
[8] = tested on: OVCAR-3 ovarian
[9] = tested on: EKVX NSCLC
[10] = tested on: SK-MEL-2 melanoma
[11] = tested on: TK-10 renal
[12] = tested on: A549 NSCLC
[13] = tested on: K-562 leukemia
[14] = tested on: NCI-H522 lung
[15] = tested on: IGROV1 ovarian
[16] = tested on: COLO 205 colon
[17] = tested on: SK-OV-3 ovarian
[18] = tested on: HOP-92 NSCLC
[19] = tested on: A498 renal
[20] = tested on: HOP-18 NSCLC
[21] = tested on: MOLT-4 leukemia
[22] = tested on: SW-620 colon
[23] = tested on: RXF-631 renal
[24] = tested on: LXFL 529 NSCLC
[25] = tested on: ACHN renal
[26] = tested on: SK-MEL-5 melanoma
[27] = tested on: RPMI-8226 leukemia
[28] = tested on: UACC-62 melanoma
[29] = tested on: SNB-75 CNS
[30] = tested on: DLD-1 colon
[31] = tested on: HT29 colon
[32] = tested on: DMS 273 small cell lung
[33] = tested on: RXF 393 renal
[34] = tested on: UO-31 renal
[35] = tested on: CCRF-CEM leukemia
[36] = tested on: KM20L2 colon
[37] = tested on: HCT-15 colon
[38] = tested on: SNB-19 CNS
[39] = tested on: SK-MEL-28 melanoma
[40] = tested on: XF 498 CNS
[41] = tested on: MALME-3M melanoma
[42] = tested on: CAKI-1 renal
[43] = tested on: OVCAR-4 ovarian
[44] = tested on: NCI-H23 lung
[45] = tested on: HL-60(TB) leukemia
[46] = tested on: OVCAR-5 ovarian
[47] = tested on: NCI-H460 lung
[48] = tested on: M19-MEL melanoma
[49] = tested on: LOX IMVI melanoma
[50] = tested on: KM12 colon
[51] = tested on: SF-268 CNS
[52] = tested on: T-47D breast
[53] = tested on: UACC-257 melanoma
[54] = tested on: MDA-MB-231 breast
[55] = tested on: MDA-N
[56] = tested on: DMS 114 small cell lung
[57] = tested on: PC-3 prostate
[58] = tested on: HS 578T breast
[59] = tested on: SNB-78 CNS
[60] = tested on: HCT-116 colon
[61] = tested on: NCI-H226 lung
[62] = tested on: HOP-62 NSCLC
[63] = tested on: BT-549 breast
[64] = tested on: DU-145 prostate
[65] = tested on: MCF7 breast
[66] = tested on: SR leukemia
[67] = tested on: MDA-MB-435
[68] = tested on: HCC-2998 colon

CCCCCCCCNC(=O)SCCCC
TGI [1]: > 100 µM | TGI [2]: > 100 µM | TGI [3]: > 100 µM | TGI [4]: > 100 µM | TGI [5]: > 100 µM | TGI [6]: > 100 µM | TGI [7]: > 100 µM | TGI [8]: > 100 µM | TGI [9]: 80.1 µM | TGI [10]: 56.2 µM | TGI [11]: > 100 µM | TGI [12]: > 100 µM | TGI [13]: > 100 µM | TGI [14]: 76.7 µM | TGI [15]: > 100 µM | TGI [16]: > 100 µM | TGI [17]: > 100 µM | TGI [18]: 49 µM | TGI [19]: > 100 µM | TGI [20]: > 100 µM | TGI [21]: 84.9 µM | TGI [22]: > 100 µM | TGI [23]: > 100 µM | TGI [24]: > 100 µM | TGI [25]: > 100 µM | TGI [26]: 44.4 µM | TGI [27]: 58.7 µM | TGI [28]: > 100 µM | TGI [29]: 68.8 µM | TGI [30]: > 100 µM | TGI [31]: 59.4 µM | TGI [32]: > 100 µM | TGI [33]: 68 µM | TGI [34]: 65.1 µM | TGI [35]: 69 µM | TGI [36]: > 100 µM | TGI [37]: > 100 µM | TGI [38]: 87.9 µM | TGI [39]: > 100 µM | TGI [40]: 37.5 µM | TGI [41]: 63.1 µM | TGI [42]: 61.9 µM | TGI [43]: > 100 µM | TGI [44]: > 100 µM | TGI [45]: 43.7 µM | TGI [46]: > 100 µM | TGI [47]: 82.2 µM | TGI [48]: > 100 µM | TGI [49]: 39.2 µM | TGI [50]: > 100 µM | TGI [51]: > 100 µM

CN(C)CCNC(=O)c1cccc2nc3c(ccc4ccccc43)nc12
TGI [1]: 7.84 µM | TGI [2]: 11 µM | TGI [3]: 14.6 µM | TGI [4]: 14.3 µM | TGI [5]: 17.6 µM | TGI [6]: 4.49 µM | TGI [7]: 3.59 µM | TGI [8]: 19.7 µM | TGI [52]: 20.6 µM | TGI [53]: 3.4 µM | TGI [9]: 17.8 µM | TGI [10]: 3.86 µM | TGI [11]: 20.6 µM | TGI [12]: 12.2 µM | TGI [13]: 4.86 µM | TGI [14]: 18.7 µM | TGI [15]: 22.2 µM | TGI [16]: 11.3 µM | TGI [54]: 4.12 µM | TGI [17]: 24.2 µM | TGI [55]: 3.21 µM | TGI [56]: 8.12 µM | TGI [18]: 17.3 µM | TGI [19]: 15.5 µM | TGI [20]: 29.9 µM | TGI [57]: 10.1 µM | TGI [21]: 1.6 µM | TGI [22]: 3.61 µM | TGI [23]: 2.43 µM | TGI [58]: 22.8 µM | TGI [59]: 19.4 µM | TGI [24]: 14 µM | TGI [60]: 5.68 µM | TGI [25]: 4.34 µM | TGI [61]: 10.9 µM | TGI [26]: 4.03 µM | TGI [27]: 6.66 µM | TGI [62]: 7.88 µM | TGI [28]: 5.2 µM | TGI [29]: 16.5 µM | TGI [30]: 8.25 µM | TGI [63]: 22.8 µM | TGI [31]: 4.08 µM | TGI [32]: > 100 µM | TGI [33]: 9.54 µM | TGI [34]: 14.9 µM | TGI [35]: 4.68 µM | TGI [36]: 3.15 µM | TGI [37]: 4.6 µM | TGI [38]: 18.1 µM | TGI [64]: 16.4 µM | TGI [65]: 3.27 µM | TGI [39]: 4.37 µM | TGI [66]: 4.25 µM | TGI [41]: 3.05 µM | TGI [42]: 12.9 µM | TGI [43]: 5.27 µM | TGI [67]: 13.7 µM | TGI [44]: 15.9 µM | TGI [45]: 3.98 µM | TGI [46]: 15 µM | TGI [47]: 1.91 µM | TGI [68]: 7.18 µM | TGI [48]: 3.02 µM | TGI [49]: 2.44 µM | TGI [50]: 6.9 µM | TGI [51]: 2.19 µM
